What all share (assay): Antibacterial effect, dilution method on Mueller-Hinton agar (MIC)
Holding throughout (assay type): cell-based

The test system of assay [1] is Krebsiella pneumoniae 8045.
The subject of assay [2] is Escherichia coli NIHJ C-2. The note with it: NIHJC2.
Assay [3] deals with Proteus vulgaris 6897.
Assay [4] has as its system Pseudomonas sepatia F-2251. Particulars: F2251.
The test system of assay [5] is Pseudomonas maltphilia F-3438. Particulars: F3438.
In assay [6] the test system is Pseudomonas aerginosa 145.
Assay [7] deals with Proteus morganii 4298. The note with it: Morganella morganii.
The test system of assay [8] is Enterobacter aerogenes F-1948. Particulars: Klebsiella aerogenes, F1948.
Assay [9] deals with Staphilococcus aureus 209-P.
Assay [10] relates to Proteus rettgeri 4289. Particulars: Providencia rettgeri.
Assay [11] deals with Serratia marcescens T-26. The note with it: T26.

Values after ≈ are worked out from the molar mass of the structure shown. A value given as a limit tells only on which side of the number the result lay.

This is an account of results in patent EP0082501A1, “Beta-lactam compound and a pharmaceutical composition containing the same” (KYOWA HAKKO KOGYO CO., LTD, priority 1981, dated 1983).

On to `CO/N=C(\C(=O)N[C@@H]1C(=O)N2C(C(=O)O)=C[C@H](Sc3nnnn3C)C[C@H]12)c1csc(N)n1` [Ex.15, [4R,6R,7S]-7-[2-(2-amino-4-thiazolyl)-2-syn-methoxyiminoacetamido]-4-(1-methyl-1,2,3,4-tetrazol-5-yl)-thio-1-azabicyclo[4,2,0]oct-2-en-8-oxo-2-carboxylic acid], for which the MIC (usually the smallest concentration in the dilution series that meets the test's criterion for growth inhibition) was 0.02 µg/mL (≈ 0.0417 µM) in assay [1]; 0.1 µg/mL (≈ 0.209 µM) in [2]; ≤ 0.01 µg/mL in assay [3]; 25 µg/mL (≈ 52.1 µM) in [4]; > 100 µg/mL in assay [5]; 12.5 µg/mL (≈ 26.1 µM) in assay [6]. Also, the MIC in assay [7] was ≤ 0.01 µg/mL; in assay [8] it was 50 µg/mL (≈ 104 µM); in [9] it was 6.25 µg/mL (≈ 13 µM); in assay [10] it was ≤ 0.01 µg/mL; in assay [11], 6.25 µg/mL (≈ 13 µM).

`CO/N=C(\C(=O)N[C@@H]1C(=O)N2C(C(=O)O)=C[C@@H](Sc3ccncc3)C[C@H]12)c1csc(N)n1` [Ex.23, sodium [4S,6R,7S]-7-[2-(2-amino-thiazol-4-yl)-2-syn-methoxyimino]-acetamido-4-(pyridin-4-yl)-thio-1-azabicyclo[4,2,0]oct-2-en-8-oxo-2-carboxylate]: the MIC was 0.2 µg/mL in [1]; 0.39 µg/mL in [2]; ≤ 0.01 µg/mL in assay [3]; 12.5 µg/mL in assay [4]; > 100 µg/mL in [5]; 12.5 µg/mL in assay [6]. Also, the MIC is 0.2 µg/mL in assay [7]; 50 µg/mL in assay [8]; 3.13 µg/mL in [9]; 0.02 µg/mL in assay [10]; 25 µg/mL in [11].

For `CO/N=C(\C(=O)N[C@@H]1C(=O)N2C(C(=O)O)=C[C@@H](N=[N+]=[N-])C[C@H]12)c1csc(N)n1` [Ex.26, [4S,6R,7S]-7-[2-(2-amino-4-thiazolyl)-2-syn-methoxyiminoacetamido]-4-azido-1-azabicyclo[4,2,0]oct-2-en-8-oxo-2-carboxylic acid], the MIC in assay [1] was 0.02 µg/mL (≈ 0.0492 µM); in [2], 0.05 µg/mL (≈ 0.123 µM); in [3] it was ≤ 0.01 µg/mL; in assay [4] it was 25 µg/mL (≈ 61.5 µM); in assay [5], > 100 µg/mL; in assay [6] it was 12.5 µg/mL (≈ 30.8 µM). Besides, the MIC in assay [7] is 0.02 µg/mL (≈ 0.0492 µM); in assay [8], 25 µg/mL (≈ 61.5 µM); in assay [9], 6.25 µg/mL (≈ 15.4 µM); in [10], ≤ 0.01 µg/mL; in assay [11], 6.25 µg/mL (≈ 15.4 µM).

Regarding `CC(=O)Oc1ccc(C(=O)O/N=C(\C(=O)N[C@@H]2C(=O)N3C(C(=O)O)=C[C@H](N=[N+]=[N-])C[C@H]23)c2csc(N)n2)cc1OC(C)=O` [Ex. 6, [4R,6R,7S]-7-[2-(2-amino-4-thiazolyl)-2-syn-(3,4-diacetoxy)-benzoyloxyimino-acetamido]-4-azido-l-azabicyclo[4,2,0]oct-2-en-8-oxo-2-carboxylic acid], the minimal inhibitory concentration (MIC) in [1] is 0.02 µg/mL (≈ 0.0327 µM); in assay [2] it was 0.05 µg/mL (≈ 0.0816 µM); in [3] it was ≤ 0.01 µg/mL; in assay [4], 0.02 µg/mL (≈ 0.0327 µM); in assay [5] it was 25 µg/mL (≈ 40.8 µM); in [6], 0.1 µg/mL (≈ 0.163 µM). Besides, the MIC in assay [7] is 0.05 µg/mL (≈ 0.0816 µM); in assay [8], 3.13 µg/mL (≈ 5.11 µM); in assay [9] it was 3.13 µg/mL (≈ 5.11 µM); in assay [10] it was ≤ 0.01 µg/mL; in assay [11], 0.05 µg/mL (≈ 0.0816 µM).

For `CO/N=C(\C(=O)N[C@@H]1C(=O)N2C(C(=O)O)=C[C@H](Sc3nnnn3-c3ccccc3)C[C@H]12)c1csc(N)n1` [Ex. 13, [4R,6R,7S]-7-[2-(2-amino-4-thiazolyl)-2-syn-methoxyiminoacetamido]-4-(1-phenyl-1,2,3,4-tetrazol-5-yl)-thio-l-azabicyclo[4,2,0]oct-2-en-8-oxo-2-carboxylic acid], the MIC is 0.39 µg/mL (≈ 0.72 µM) in assay [1]; 0.78 µg/mL (≈ 1.44 µM) in assay [2]; 0.02 µg/mL (≈ 0.0369 µM) in assay [3]; 25 µg/mL (≈ 46.2 µM) in assay [4]; > 100 µg/mL in [5]; 12.5 µg/mL (≈ 23.1 µM) in assay [6]. Also, the MIC worked out at 0.78 µg/mL (≈ 1.44 µM) in assay [7]; 50 µg/mL (≈ 92.3 µM) in [8]; 3.13 µg/mL (≈ 5.78 µM) in assay [9]; 0.2 µg/mL (≈ 0.369 µM) in assay [10]; 6.25 µg/mL (≈ 11.5 µM) in assay [11].

For the compound `CO/N=C(\C(=O)N[C@@H]1C(=O)N2C(C(=O)O)=C[C@H](N=[N+]=[N-])C[C@H]12)c1csc(N)n1` [Exs. 5 and 17, [4R, 6R, 7S]-7-[2-(2-amino-4-thiazolyl)-2-syn-methoxyiminoacetamido]-4-azido-1-azabicyclo [4,2,0]oct-2-en-8-oxo-2-carboxylic acid], the MIC was 0.02 µg/mL (≈ 0.0492 µM) in [1]; 0.1 µg/mL (≈ 0.246 µM) in [2]; 12.5 µg/mL (≈ 30.8 µM) in assay [4]; > 100 µg/mL in [5]; 6.25 µg/mL (≈ 15.4 µM) in [6]; ≤ 0.01 µg/mL in [7]. Also, the MIC in [8] was found to be 25 µg/mL (≈ 61.5 µM); in assay [9] it was 1.56 µg/mL (≈ 3.84 µM); in assay [11] it was 6.25 µg/mL (≈ 15.4 µM).
